Legend:
AMARE [1] = test: Pre-emergence herbicidal action against AMARE; type: in vivo, Amaranthus retroflexus
Description: (§1) Seeds of monocotyledonous and dicotyledonous weed plants and crop plants are laid out in sandy loam soil in wood-fiber pots and covered with soil. The compounds of the invention, formulated in the form of wettable powders (WP) or as emulsion concentrates (EC), are then applied to the surface of the covering soil in the form of an aqueous suspension or emulsion at a water application rate equivalent to 600 to 800 l/ha, with addition of 0.2% wetting agent. After the treatment, the pots are placed in a greenhouse and kept under good growth conditions for the trial plants. The damage to the test plants is scored visually after a test period of 3 weeks by comparison with untreated controls (herbicidal activity in percent (%): 100% activity=the plants have died, 0% activity=like control plants). […] The tables below illustrate, in an illustrative manner, the post-emergence herbicidal action of the compounds of the invention, the herbicidal activity being stated in percent.

ECHCG [2] = test: Pre-emergence herbicidal action against ECHCG; type: in vivo, Echinochloa crus-galli; settings: 80 g/ha
Description: as §1

VIOTR [3] = test: Pre-emergence herbicidal action against VIOTR; type: in vivo, Viola tricolor
Description: as §1

MATIN = test: Pre-emergence herbicidal action against MATIN; type: in vivo, Matricaria inodora
Description: as §1

AMARE [4] = test: Post-emergence herbicidal action against AMARE; type: in vivo, Amaranthus retroflexus; settings: 20 g/ha, visual assessment about 3 weeks after treatment, 100% = plants have died, 0% = like control plants
Procedure: (§2) Seeds of monocotyledonous and dicotyledonous weed and crop plants are laid out in sandy loam soil in wood-fiber pots, covered with soil and cultivated in a greenhouse under good growth conditions. 2 to 3 weeks after sowing, the test plants are treated at the one-leaf stage. The compounds of the invention, formulated in the form of wettable powders (WP) or as emulsion concentrates (EC), are then sprayed onto the green parts of the plants in the form of an aqueous suspension or emulsion at a water application rate equivalent to 600 to 800 l/ha, with addition of 0.2% wetting agent. After the test plants have been left to stand in the greenhouse under optimal growth conditions for about 3 weeks, the action of the preparations is assessed visually in comparison to untreated controls (herbicidal action in percent (%): 100% activity=the plants have died, 0% activity=like control plants). […] The tables below illustrate, in an illustrative manner, the post-emergence herbicidal action of the compounds of the invention, the herbicidal activity being stated in percent.

ABUTH [5] = test: Pre-emergence herbicidal action against ABUTH; type: in vivo, Abutilon theophrasti; settings: for Pre-emergence action against ABUTH (herbicidal activity in percent): dosage 20 g/ha, scored visually after 3 weeks vs untreated controls, 100% = plants have died, 0% = like control plants
Description: as §1

DIGSA = test: Pre-emergence herbicidal action against DIGSA; type: in vivo, Digitaria sanguinalis
Description: as §1

VIOTR [6] = test: Post-emergence herbicidal action against VIOTR; type: in vivo, Viola tricolor
Procedure: as §2

ECHCG [7] = test: Post-emergence herbicidal action against ECHCG; type: in vivo, Echinochloa crus-galli
Procedure: as §2

ABUTH [8] = test: Post-emergence herbicidal action against ABUTH; type: in vivo, Abutilon theophrasti; settings: dosage 20 g/ha, visual assessment about 3 weeks after treatment vs untreated controls
Procedure: as §2

PHBPU = test: Post-emergence herbicidal action against PHBPU; type: in vivo, Pharbitis purpurea; settings: dosage 20 g/ha
Procedure: as §2

ALOMY = test: Pre-emergence herbicidal action against ALOMY; type: in vivo, Alopecurus myosuroides; settings: 80 g/ha, pre-emergence, scored visually after 3 weeks vs untreated controls (100% = plants have died, 0% = like control plants)
Description: as §1

SETVI [9] = test: Pre-emergence herbicidal action against SETVI; type: in vivo, Setaria viridis
Description: as §1

SETVI [10] = test: Post-emergence herbicidal action against SETVI; type: in vivo, Setaria viridis; settings: dosage 20 g/ha
Procedure: as §2

[11] = 80 g/ha, scored visually after 3 weeks vs untreated controls (100% = plants have died, 0% = like control plants)
[12] = 20 g/ha, scored visually after 3 weeks vs untreated controls, 100% = plants have died, 0% = like control plants

Row | Structure (SMILES) | Pre-emergence action against AMARE in % (AMARE [1]; [11]) | Pre-emergence action against AMARE in % (AMARE [1]; [12]) | Pre-emergence action against ECHCG in % (ECHCG [2]) | Pre-emergence action against MATIN in % (MATIN; dosage 80 g/ha) | Post-emergence action at 20 g/ha against AMARE in % (AMARE [4]) | Pre-emergence action against DIGSA in % (DIGSA; dosage 80 g/ha) | Pre-emergence action against ABUTH (herbicidal activity) (ABUTH [5]; [11]) | Post-emergence action against ECHCG in % (ECHCG [7]; dosage 20 g/ha) | other results
1 | CSCCNC(=O)c1c(C(F)F)ccc(C(=O)Nc2nnnn2C)c1Cl [Example 1-157] | 100% | – | – | – | – | – | – | – | –
2 | CCn1nnnc1NC(=O)c1ccc(C(F)F)c(C(=O)NCc2cccs2)c1Cl [Example 2-162] | 100% | 90% | 80% | 90% | 100% | – | – | – | Pre-emergence action against VIOTR in % (VIOTR [3]; dosage 80 g/ha): 80%
3 | Cn1nnnc1NC(=O)c1ccc(C(F)(F)F)c(C(=O)Nc2ccccc2)c1Cl [Example 1-143] | – | – | – | – | – | – | – | – | pest or weed control at 80 g/ha (AMARE [1]; Amaranthus retroflexus, 504 h, 80 g/ha, scored visually after 3 weeks vs untreated controls, 100% = plants have died, 0% = like control plants): 100%; pest or weed control at 80 g/ha (ABUTH [5]; Abutilon theophrasti, 504 h, 80 g/ha, scored visually after 3 weeks vs untreated controls (100% = plants have died, 0% = like control plants)): 100%; pest or weed control at 20 g/ha (MATIN; Tripleurospermum inodorum, 504 h, dosage 20 g/ha): 80%; pest or weed control at 80 g/ha (MATIN; Tripleurospermum inodorum, 504 h, dosage 80 g/ha): 100%; pest or weed control at 80 g/ha (DIGSA; Digitaria sanguinalis, 504 h, dosage 80 g/ha): 80%
4 | CNC(=O)c1c(C(F)F)ccc(C(=O)Nc2nnc(C)o2)c1C1CC1 [Example 6-231] | 100% | – | – | 80% | 90% | 90% | – | – | Post-emergence action against VIOTR in % (VIOTR [6]; 5 g/ha): 90%; Post-emergence action against VIOTR in % (VIOTR [6]; 20 g/ha): 90%; Pre-emergence action against DIGSA in % (DIGSA; dosage 20 g/ha): 80%
5 | Cn1nnnc1NC(=O)c1ccc(C(F)(F)F)c(C(=O)NCC#N)c1Cl [Example 1-140] | 100% | – | – | – | 80% | – | – | – | Post-emergence action against VIOTR in % (VIOTR [6]; 20 g/ha): 80%; Pre-emergence action against VIOTR in % (VIOTR [3]; dosage 80 g/ha): 90%
6 | Cc1nnc(NC(=O)c2ccc(Br)c(C(=O)NC(C)C3CC3)c2Cl)o1 (stereo not shown) [Example 6-257] | 100% | – | 80% | 90% | – | 100% | 100% | 90% | Pre-emergence action against MATIN in % (MATIN; dosage 20 g/ha): 80%; Post-emergence action against ECHCG in % (ECHCG [7]; dosage 5 g/ha): 80%
7 | CSc1c(C(=O)Nc2nnc(C)o2)ccc(C(F)(F)F)c1C(=O)NC1CC1 [Example 6-60] | 100% | – | 80% | 90% | 100% | – | 90% | 90% | Post-emergence action against ABUTH in % (ABUTH [8]): 90%
8 | Cc1nnc(NC(=O)c2ccc(C(F)F)c(C(=O)Nc3ccccc3)c2Cl)o1 [Example 6-266] | 100% | 90% | – | 80% | 100% | – | 80% | – | Post-emergence action against PHBPU in % (PHBPU): 80%
9 | CCNC(=O)c1c(C(F)F)ccc(C(=O)Nc2nnc(C)o2)c1OC [Example 6-50] | 100% | 100% | – | 80% | – | 100% | 90% | 80% | Post-emergence action against VIOTR in % (VIOTR [6]; 20 g/ha): 80%; Post-emergence action against ABUTH in % (ABUTH [8]): 80%
10 | Cn1nnnc1NC(=O)c1ccc(C(F)F)c(C(=O)NCc2cccs2)c1Cl [Example 1-162] | 100% | 90% | 100% | 90% | 90% | – | – | 80% | Pre-emergence action against ALOMY (herbicidal activity) (ALOMY): 90%; Post-emergence action against PHBPU in % (PHBPU): 80%; Pre-emergence action against SETVI in % (SETVI [9]; dosage 80 g/ha): 80%
11 | CNC(=O)c1c(C(F)F)ccc(C(=O)Nc2nnc(C)o2)c1OC [Example 6-49] | 100% | 80% | – | – | – | – | – | – | Post-emergence action against VIOTR in % (VIOTR [6]; 20 g/ha): 80%; Pre-emergence action against VIOTR in % (VIOTR [3]; dosage 20 g/ha): 80%; Pre-emergence action against VIOTR in % (VIOTR [3]; dosage 80 g/ha): 80%; Post-emergence action against ABUTH in % (ABUTH [8]): 80%
12 | CSc1c(C(=O)Nc2nnc(C)o2)ccc(C(F)F)c1C(=O)NC1CC1 [Example 6-76] | 100% | – | – | 90% | 100% | – | – | 80% | Post-emergence action against SETVI in % (SETVI [10]): 80%; Pre-emergence action against SETVI in % (SETVI [9]; dosage 80 g/ha): 80%
13 | Cc1nnc(NC(=O)c2ccc(Br)c(C(=O)NCC3CC3)c2Cl)o1 [Example 6-143] | 100% | 100% | – | – | – | 100% | 100% | – | Pre-emergence action against ABUTH (herbicidal activity in percent) (ABUTH [5]): 100%
14 | Cc1nnc(NC(=O)c2ccc(Br)c(C(=O)NCC(F)(F)F)c2Cl)o1 [Example 6-144] | 100% | 90% | 100% | 80% | – | 100% | 90% | 80% | Pre-emergence action against DIGSA in % (DIGSA; dosage 20 g/ha): 90%; Pre-emergence action against SETVI in % (SETVI [9]; dosage 80 g/ha): 90%
15 | COc1c(C(=O)Nc2nnc(C)o2)ccc(C(F)F)c1C(=O)NC1CC1 [Example 6-51] | 100% | 80% | – | – | – | 100% | 100% | 80% | –
16 | Cc1nnc(NC(=O)c2ccc(C(F)F)c(C(=O)NCC3CC3)c2Br)o1 [Example 6-167] | 100% | 100% | 100% | 90% | 100% | 90% | 100% | 80% | Pre-emergence action against ABUTH (herbicidal activity in percent) (ABUTH [5]): 90%; Pre-emergence action against VIOTR in % (VIOTR [3]; dosage 20 g/ha): 90%; Pre-emergence action against VIOTR in % (VIOTR [3]; dosage 80 g/ha): 100%; Pre-emergence action against SETVI in % (SETVI [9]; dosage 20 g/ha): 80%; Pre-emergence action against SETVI in % (SETVI [9]; dosage 80 g/ha): 80%
17 | Cc1nnc(NC(=O)c2ccc(C(F)F)c(C(=O)NCC(=O)N(C)C)c2Cl)o1 [Example 6-265] | 80% | – | – | – | – | – | – | – | –
18 | CCn1nnnc1NC(=O)c1ccc(C(F)F)c(C(=O)NCCSC)c1C [Example 2-347] | – | – | – | – | – | – | 100% | – | –
19 | CCn1nnnc1NC(=O)c1ccc(C(F)F)c(C(=O)NCCSC)c1Cl [Example 2-157] | 90% | – | – | – | 90% | – | – | – | –
20 | Cc1nnc(NC(=O)c2ccc(C(F)F)c(C(=O)NC3CC3)c2C2CC2)o1 [Example 6-233] | 80% | – | – | – | – | 90% | – | 80% | –
21 | Cc1nnc(NC(=O)c2ccc(C(F)(F)F)c(C(=O)NCC(F)F)c2C2CC2)o1 [Example 6-230] | 100% | 100% | 80% | 80% | 90% | 80% | 90% | – | Post-emergence action against PHBPU in % (PHBPU): 80%
22 | N#CCNC(=O)c1c(C(F)(F)F)ccc(C(=O)Nc2nnco2)c1Cl [Example 5-254] | 100% | – | – | – | 80% | – | 100% | – | Pre-emergence action against VIOTR in % (VIOTR [3]; dosage 80 g/ha): 90%

Source: patent US12655116B2, “Substituted isophthalic acid diamides” (Bayer Aktiengesellschaft, priority 2020, dated 2026)
